Assay results as given in PubChem BioAssay (NCI).
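Each compound was tested at five concentrations against cells in 96-well plates for 48 hours. GI50 marks 50% less growth. TGI: concentration producing complete growth inhibition.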

What was measured:
Assay in all cases: NCI tumour cell line growth inhibition, 48 h
SW-620 colon = tested on: SW-620 colon
SK-OV-3 ovarian = tested on: SK-OV-3 ovarian
RPMI-8226 leukemia = tested on: RPMI-8226 leukemia
CCRF-CEM leukemia = tested on: CCRF-CEM leukemia
SNB-75 CNS = tested on: SNB-75 CNS
CAKI-1 renal = tested on: CAKI-1 renal
786-0 renal = tested on: 786-0 renal
A549 NSCLC = tested on: A549 NSCLC
TK-10 renal = tested on: TK-10 renal
SK-MEL-28 melanoma = tested on: SK-MEL-28 melanoma

Structure (SMILES)	GI50 (SW-620 colon) [µM]	TGI (SW-620 colon) [µM]	GI50 (SK-OV-3 ovarian) [µM]	TGI (SK-OV-3 ovarian) [µM]	GI50 (RPMI-8226 leukemia) [µM]	TGI (RPMI-8226 leukemia) [µM]	TGI (CCRF-CEM leukemia) [µM]	GI50 (SNB-75 CNS) [µM]	TGI (SNB-75 CNS) [µM]	GI50 (CAKI-1 renal) [µM]	TGI (CAKI-1 renal) [µM]	GI50 (786-0 renal) [µM]	TGI (786-0 renal) [µM]	GI50 (A549 NSCLC) [µM]	TGI (A549 NSCLC) [µM]	GI50 (TK-10 renal) [µM]	TGI (TK-10 renal) [µM]	GI50 (SK-MEL-28 melanoma) [µM]	TGI (SK-MEL-28 melanoma) [µM]	GI50 (CCRF-CEM leukemia) [µM]
O=[N+]([O-])/C=C\c1ccc(Cl)c(Cl)c1	1.3	3.3	14.4	27.4	0.249	0.624	4.75	4.47	17.5	1.32	2.88	1.89	3.56	2.37	5.43	3.48	12	2.48	6.54	–
COc1ccc(/C(=C2\O[C@@H]([C@H]3COC(C)(C)O3)[C@H]3OC(C)(C)O[C@@H]23)c2cc(OC)c(OC)c(OC)c2)cc1O	4.05	> 100	4.11	18.5	4.63	> 100	> 100	1.8	6.31	37.3	> 100	21.1	60.6	23.2	> 100	23.4	61.4	5.45	> 100	3.75
O=C1C=CC(=Nc2ccc3c(c2)C(Br)c2ccccc2-3)O1 (stereo unspecified)	–	> 100	–	> 100	–	> 100	> 100	–	> 100	–	–	–	> 100	–	> 100	–	> 100	–	> 100	–
Nc1ccn(C2O[C@H](CO)[C@@H](O)[C@@H]2O)c(=O)n1 (stereo partly specified)	–	> 100	–	> 100	–	–	–	41.5	> 100	–	> 100	–	> 100	24.6	> 100	–	> 100	–	> 100	–
COc1cc(/C=C/c2cc(/C=C/c3ccc(O)c(OC)c3)n(-c3ccccc3)n2)ccc1O	–	–	0.334	1.27	–	–	> 100	–	–	0.33	7.26	0.582	1.83	0.405	2.16	0.563	1.99	0.386	2.72	0.127
CC1=C(C(=O)Nc2ccc([N+](=O)[O-])cc2)C(c2ccc(N(C)C)cc2)C(C(=O)Nc2ccc([N+](=O)[O-])cc2)=C(C)N1	–	69.8	–	80	–	43.2	60.7	–	59.6	–	89.5	–	57.6	–	> 100	–	92.2	–	28.2	–
CC12CC[C@@H](C(C)(C)O)C1[C@@H](O)CC1(C)C2CCC2[C@@]3(C)CC[C@H](O)C(C)(C)C3C(O)C[C@]21C (stereo partly specified)	–	39	–	–	–	> 100	27.3	–	–	–	–	–	33.8	–	29.7	–	35.6	–	40.2	–
CCCCCCCCCCCCCC(=O)OC1CC(=O)OC1CO (stereo unspecified)	–	> 100	–	> 100	–	> 100	74.4	–	> 100	–	> 100	–	> 100	–	> 100	–	> 100	–	–	–
O=C(N/N=C/c1ccccc1O)c1cccc([N+](=O)[O-])c1	–	> 100	–	> 78.3	–	> 100	> 100	–	–	–	–	–	> 100	–	> 100	–	> 84.6	–	> 100	–
N#CC(C(=N/O)/C(=N/O)C(C#N)c1ccc(Cl)cc1)c1ccc(Cl)cc1 (stereo unspecified)	–	> 100	–	> 100	–	> 100	–	–	> 100	–	> 100	–	> 100	–	> 100	–	> 100	–	> 100	–
CCN(CC)c1c(C(=O)/C=C/c2ccccc2)c(-c2ccccc2)nn(C)c1=O	–	–	–	> 100	–	–	–	–	–	–	> 100	–	> 100	–	> 100	–	> 100	–	> 100	–
OCCC1(O)CCC(O)CC1 (stereo unspecified)	–	> 100	–	> 100	–	> 100	> 100	–	> 100	–	–	–	> 100	–	> 100	–	> 100	–	> 100	–
O=C1NNC=Nc2ccc(cc2)S(=O)(=O)c2ccc(cc2)N=CNNC1=O	–	> 100	–	> 100	–	–	–	–	–	–	> 100	–	> 100	–	> 100	–	> 100	–	> 100	–
N#CSCC1CC(O)(c2ccccc2)C(c2ccccc2)C(c2ccc(Cl)cc2)O1 (stereo unspecified)	1.63	3.93	2.68	6.21	1.44	4.68	–	1.55	4.28	1.67	4.14	1.74	3.28	1.78	4.24	2.01	4.2	1.97	4.5	–
CC1(C)CC(/C=C2/OC(=O)c3ccccc32)=C(C#N)C(=O)O1	–	> 100	–	> 100	–	> 100	> 100	–	> 100	–	> 100	–	> 100	–	> 100	–	–	–	> 100	–
Cc1ccc(CS/C(=C\c2ccc([N+](=O)[O-])cc2)C(=O)c2ccc(F)cc2)cc1	1.67	3.71	17.7	> 100	0.458	3.51	> 100	19.2	71.8	–	–	2.11	4.99	49.1	> 100	15.1	32.2	5.46	26.5	2.23
Cc1ccc(S(=O)(=O)C(CC(=O)N2CCCC2)C(=O)c2ccccc2)cc1 (stereo unspecified)	–	> 100	–	–	–	–	62.5	–	> 100	–	> 100	–	> 100	–	> 100	–	> 100	–	> 100	–
O=C(CI)NC1Oc2ccccc2-c2oc(=O)c(-c3ccccc3)cc21 (stereo unspecified)	–	–	1.83	3.48	2.08	4.79	> 100	1.54	2.94	1.67	3.05	0.441	1.58	2.36	6.16	1.71	3.13	1.81	3.31	0.305

Structure (SMILES)	GI50 (SW-620 colon) [µM]	TGI (SW-620 colon) [µM]	GI50 (SK-OV-3 ovarian) [µM]	TGI (SK-OV-3 ovarian) [µM]	GI50 (RPMI-8226 leukemia) [µM]	TGI (RPMI-8226 leukemia) [µM]	TGI (CCRF-CEM leukemia) [µM]	GI50 (SNB-75 CNS) [µM]	TGI (SNB-75 CNS) [µM]	GI50 (CAKI-1 renal) [µM]	TGI (CAKI-1 renal) [µM]	GI50 (786-0 renal) [µM]	TGI (786-0 renal) [µM]	GI50 (A549 NSCLC) [µM]	TGI (A549 NSCLC) [µM]	GI50 (TK-10 renal) [µM]	TGI (TK-10 renal) [µM]	GI50 (SK-MEL-28 melanoma) [µM]	TGI (SK-MEL-28 melanoma) [µM]	GI50 (CCRF-CEM leukemia) [µM]
COC1C(CN[N+](=O)CC2OC3OC(C)(C)OC3C2OC)OC2OC(C)(C)OC21 (stereo unspecified)	–	> 100	–	> 100	–	–	> 100	–	> 100	–	> 100	–	> 100	–	> 100	–	> 100	–	> 100	–
CCCCCCCCCCCC(=O)CC(=O)c1c(O)cccc1O	–	31	–	95.5	–	43.9	> 100	–	36.5	–	–	–	39.4	–	33.1	–	57.5	–	44.1	–
CCOC(=O)NC(=O)c1cn(C2OC(COC(=O)CCCCCCCCC(=O)OCC3OC(n4cc(C(=O)NC(=O)OCC)c(=O)[nH]c4=O)C(O)C3O)C(O)C2O)c(=O)[nH]c1=O (stereo unspecified)	–	> 100	–	–	–	> 100	> 100	–	> 100	–	> 100	–	> 100	–	> 100	–	> 100	–	> 100	–
N=C1CSC2=NC3=C(CCC/C3=C\c3ccccc3)C(c3ccccc3)N12 (stereo unspecified)	–	15.2	–	28.4	–	5.57	8.61	–	23.7	–	29.2	–	18.3	–	19.1	–	18.1	–	–	–
CSc1cc(N=Nc2nc3ccccc3s2)c2ccccc2c1O	13.3	34.8	10.7	28.7	2.51	25.6	–	0.0869	11.9	10.1	20.3	9.82	18.4	12.1	28.1	12.6	28.7	8.01	18.6	–
CC(C)CC(=O)[O-].CC(C)CC(=O)[O-].N.N.N.N.[Co+3].[O-][Cl+3]([O-])([O-])[O-]	> 100	> 100	> 100	> 100	> 100	> 100	> 100	> 100	> 100	–	–	> 100	> 100	> 100	> 100	> 100	> 100	> 100	> 100	> 100
CCCCN(CCCC)C(=O)C(=O)C(C#N)c1ccc(C)cc1 (stereo unspecified)	–	> 100	–	–	–	> 100	> 100	–	> 100	–	> 100	–	> 100	–	> 100	–	> 100	–	> 100	–
NCC(=O)NS(=O)(=O)OC[C@H]1O[C@@H](n2cnc3c(N)ncnc32)[C@H](O)[C@@H]1O	3.71	24.6	2.87	7.94	3.29	10.1	> 100	1.14	3.32	–	–	1.77	3.47	2.32	5.27	2.75	5.78	1.93	4.14	3.71
CC1=C(CCCNS(C)(=O)=O)C2=C(C)C3(CC3)[C@@](C)(O)C(=O)C2=C1	55.5	> 100	0.304	1.11	> 64.5	> 100	> 100	0.342	1.67	–	–	0.816	6.32	1.64	24.8	2.61	8.52	1.94	4.75	44.1
O=C1/C(=C/c2ccc(Cl)cc2Cl)N=C(c2ccccc2)N1Cc1ccco1	46	> 100	–	–	23.8	92	7.6	–	–	30.2	50.6	19.8	41.2	27.1	71	22.1	49.3	–	–	3.58
O=C1c2cccc(NCCN=Cc3cc(O)ccc3O)c2C(=O)c2c(NCCN=Cc3cc(O)ccc3O)cccc21	–	–	2.34	7.63	–	–	1.63	–	–	–	–	1.88	4.69	1.51	4.24	2.21	5.8	1.77	3.66	0.351
COc1cc2c3c(n(C)c(=O)c2cc1OC)-c1cc2c(cc1/C3=C\CCCN1C(=O)c3ccccc3C1=O)OCO2	13.5	> 40	> 40	> 40	–	–	–	27.8	> 40	5.44	> 40	> 40	> 40	22	> 40	> 40	> 40	> 40	> 40	–
COc1ccc2c(c1)c(-c1nc(-c3cn(C)c4ncccc34)cs1)cn2CCCN1CCCCC1	1.9	3.63	1.83	3.53	2.19	4.64	4.04	1.34	2.72	–	–	1.59	2.95	1.87	3.46	1.64	3.1	1.76	3.29	2.05
O=C(O)Cn1ccc(=O)c2ccc([N+](=O)[O-])cc21	–	> 100	–	> 100	–	–	> 100	–	> 100	–	> 100	–	> 100	–	> 100	–	> 100	–	> 100	–
COc1cc(C2c3cc4c(cc3C(NCC(O)CO)C3COC(=O)[C@H]23)OCO4)cc(OC)c1OC (stereo partly specified)	–	> 100	–	> 100	–	> 100	> 100	–	> 100	–	–	–	> 100	–	–	–	> 100	–	> 100	–
COc1ccc2cc1Oc1ccc(cc1)CC1c3cc(c(OC)cc3CCN1C)Oc1c3c(cc4c1C(C2)N(C)CC4)OCO3 (stereo unspecified)	–	25.8	–	–	–	–	31.7	–	15.3	–	–	–	25.3	–	30.6	–	5.66	–	12.1	–
CC1OC(O[C@H]2C[C@@H](O)[C@]3(CO)[C@H]4[C@H](O)C[C@]5(C)[C@@H](C6=CC(=O)OC6)CC[C@]5(O)[C@@H]4CC[C@]3(O)C2)C(O)C(O)C1O (stereo partly specified)	22.5	48.7	18.8	33.8	26.5	54.5	52.5	–	–	17.7	33.9	19.9	36.3	21.2	39	16.2	30	21.7	46.3	–
